Experimental data reported in patent US9656017B2, “Infusion delivery devices and methods” (priority 2014, dated 2017).
No end group written: not given here.

What was measured:
[1] = Post-injection plasma pramlintide levels for three subcutaneous doses compared with healthy plasma amylin profile; format: in vivo, human
Source text: How well do the recommended mealtime injections of pramlintide mimic the healthy plasma amylin profile? […] In the case of three meals per day, these doses would result in three large boluses of pramlintide that spike well above the levels of plasma amylin measured in healthy adults. FIG. 3 superimposes plasma levels of the three subcutaneous doses of pramlintide (FIG. 2) on the plasma amylin profile in healthy adults (FIG. 1).
From an efficacy standpoint, the dose limiting effect of nausea caused by pramlintide plasma spikes reduces daily drug exposure below healthy plasma amylin exposure levels. Daily exposure to endogenous hormone and infused drug can be measured by calculating the areas under the curves (AUCs) in FIG. 3.

[2] = system: test animals; details: treated test animals; e.g. marked hyperlactemia followed by hyperglycemia; cited from earlier work
[3] = 24-hour plasma profiles of endogenous insulin and amylin in healthy adults, basal/bolus AUC analysis; format: in vivo, human; details: for In Vivo AUC pM × 24 hr / AUC: endogenous; for In Vivo AUC pM × 24 hr: molar; for AUC: human, in vivo, In Vivo AUC μg/L × 24 hr, corrected for molecular weight
Source text: This difference in bolus/basal ratios was quantified by estimating the AUCs of the basal and bolus components, which would reflect the 24-hour hormone exposures attributable to these components.
Comparing AUCs results in the discovery that there is a striking difference between hormones with respect to the importance of bolus exposure compared to basal exposure, as summarized in Table 1. […] See the example in Table 1.
Either this is background amylin expression which been reported in non-beta-cell tissues, or it is nonspecific background noise in the amylin assay. […] The same adjustment should also be made for any background insulin plasma levels.
The following calculations are presented as an example of how appropriate amylin agonist doses can be determined. This insulin-dependent dosing can be achieved by calculating two separate components of pramlintide dosing: (1) the weight ratio of the daily basal component of amylin-to-insulin; and (2) the weight ratio of the daily bolus component of amylin-to-insulin.

[4] = T1D patients, same immunometric assay (FIG. 1-D); cited from earlier work
[5] = ex vivo gram AUC (bioavailability adjusted)
[6] = in vivo gram AUC (molecular weight adjusted)
[7] = plasma, healthy adults, based upon AUCs

CC[C@H](C)[C@H](NC(=O)[C@@H]1CCCN1C(=O)CNC(=O)[C@H](Cc1ccccc1)NC(=O)[C@H](CC(N)=O)NC(=O)[C@H](CC(N)=O)NC(=O)[C@H](CO)NC(=O)[C@H](CO)NC(=O)[C@H](Cc1c[nH]cn1)NC(=O)[C@@H](NC(=O)[C@H](CC(C)C)NC(=O)[C@H](Cc1ccccc1)NC(=O)[C@H](CC(N)=O)NC(=O)[C@H](C)NC(=O)[C@H](CC(C)C)NC(=O)[C@H](CCCNC(=N)N)NC(=O)[C@H](CCC(N)=O)NC(=O)[C@@H](NC(=O)[C@H](C)NC(=O)[C@@H]1CSSC[C@H](NC(=O)[C@@H](N)CCCCN)C(=O)N[C@@H](CC(N)=O)C(=O)N[C@@H]([C@@H](C)O)C(=O)N[C@@H](C)C(=O)N[C@@H]([C@@H](C)O)C(=O)N1)[C@@H](C)O)C(C)C)C(=O)N[C@@H](CC(C)C)C(=O)N1CCC[C@H]1C(=O)N1CCC[C@H]1C(=O)N[C@H](C(=O)N[C@@H](CC(N)=O)C(=O)N[C@H](C(=O)NCC(=O)N[C@@H](CO)C(=O)N[C@@H](CC(N)=O)C(=O)N[C@H](C(=O)N[C@@H](Cc1ccc(O)cc1)C(N)=O)[C@@H](C)O)C(C)C)[C@@H](C)O [pramlintide, 25,28,29Pro-h-amylin]
24-hour exposure (relative AUC, endogenous amylin = 100%) ([1]; 90 μg dose, three meals per day (FIG. 4)): achieves the healthy, 24-hour physiological exposure
plasma levels relative to plasma amylin in healthy adults ([1]; T1D patients, mealtime SC doses three times daily (FIG. 3)): supra-physiological (or pharmacological) plasma levels
amylin activity in vivo [2]: show amylin activity in vivo

Arg18 Pro25 Pro28-h-amylin
amylin activity in vivo [2]: show amylin activity in vivo

Pro28-h-amylin (KCNTATCATQRLANFLVHSSNNFGAILPSTNVGSNTY; ends and bridges not checked; cysteine pairing not given here; UniProt P10997 34-70, looked up, variant S28P) [amylin analogue]
amylin activity in vivo [2]: show amylin activity in vivo

des-Lys1-h-amylin
amylin activity in vivo [2]: show amylin activity in vivo

Pro25 Val26 Pro 28 Pro29-h-amylin
amylin activity in vivo [2]: show amylin activity in vivo

Arg18 Pro25 Pro 28-des-Lys1-h-amylin
amylin activity in vivo [2]: show amylin activity in vivo

CC[C@H](C)[C@H](NC(=O)[C@H](C)NC(=O)CNC(=O)[C@H](Cc1ccccc1)NC(=O)[C@H](CC(N)=O)NC(=O)[C@H](CC(N)=O)NC(=O)[C@H](CO)NC(=O)[C@H](CO)NC(=O)[C@H](Cc1c[nH]cn1)NC(=O)[C@@H](NC(=O)[C@H](CC(C)C)NC(=O)[C@H](Cc1ccccc1)NC(=O)[C@H](CC(N)=O)NC(=O)[C@H](C)NC(=O)[C@H](CC(C)C)NC(=O)[C@H](CCCNC(=N)N)NC(=O)[C@H](CCC(N)=O)NC(=O)[C@@H](NC(=O)[C@H](C)NC(=O)[C@@H]1CSSC[C@H](NC(=O)[C@@H](N)CCCCN)C(=O)N[C@@H](CC(N)=O)C(=O)N[C@@H]([C@@H](C)O)C(=O)N[C@@H](C)C(=O)N[C@@H]([C@@H](C)O)C(=O)N1)[C@@H](C)O)C(C)C)C(=O)N[C@@H](CC(C)C)C(=O)N[C@@H](CO)C(=O)N[C@@H](CO)C(=O)N[C@H](C(=O)N[C@@H](CC(N)=O)C(=O)N[C@H](C(=O)NCC(=O)N[C@@H](CO)C(=O)N[C@@H](CC(N)=O)C(=O)N[C@H](C(=O)N[C@@H](Cc1ccc(O)cc1)C(N)=O)[C@@H](C)O)C(C)C)[C@@H](C)O [Amylin]
In Vivo AUC pM × 24 hr ([3]; basal component): 222.79 pM × 24 hr
In Vivo AUC pM × 24 hr ([3]; bolus component): 135.19 pM × 24 hr
Basal Amylin/Insulin Ratio [3, 5]: 14.8%
Bolus Amylin/Insulin Ratio [3, 5]: 4.8%
plasma levels as % of insulin levels ([3]; healthy adults, FIG. 8): less than 5%
AUC ([3]; basal component): 0.88 ng·h/mL
AUC ([3]; bolus component): 0.534 ng·h/mL
Basal Amylin/Insulin Ratio [3, 6]: 7.4%
Bolus Amylin/Insulin Ratio [3, 6]: 2.4%
Basal Amylin/Insulin Ratio ([3]; in vivo molar AUC): 10.9%
Bolus Amylin/Insulin Ratio ([3]; in vivo molar AUC): 3.5%
Basal as % Total [3, 7]: 62%
Bolus/Basal Ratio [3, 7]: 0.6
plasma amylin, average [4]: 1.6 pM
